In patent publication US9765105B2, “Macrolide compound” (Pulike Biological Engineering, Inc., priority 2013, dated 2017):

How the values were obtained:
Experiment in all cases: in vitro susceptibility, MIC by mini broth dilution
Format in all cases: cell-based
[1] = tested on: Streptococcus equines CVCC556; settings: strain CVCC556
Summary of the method: (§1)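 Veterinary bacterial strains were grown twice on solid medium at 35 °C for 20 h. Inocula were diluted 1:200 in broth and tested against 11 two-fold compound dilutions (DMSO), in paired rows, by mini broth dilution per NCCLS guidance. MIC was the readout.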

[2] = tested on: Pasteurella multocida CVCC399; settings: strain CVCC399
Summary of the method: as §1

[3] = tested on: Actinobacillus pleuropneumoniae CVCC262; settings: strain CVCC262
Summary of the method: as §1

Haemophilus parasuis = tested on: Haemophilus parasuis
Summary of the method: as §1

[4] = tested on: Staphylococcus aureus CVCC26003; settings: strain CVCC26003
Summary of the method: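 S. aureus CVCC26003 was revived and subcultured twice, 20 h each at 35° C, on solid medium, then diluted 1:200 in CAMHB liquid medium. Compounds received an 11-step two-fold DMSO dilution in parallel duplicate rows. MIC was read by mini broth dilution per NCCLS guidance.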

| MIC values, Streptococcus equines CVCC556 [1] | MIC values, Pasteurella multocida CVCC399 [2] [ug/mi] | MIC values, Actinobacillus pleuropneumoniae CVCC262 [3] [ug/mi] | MIC values, Haemophilus parasuis (Haemophilus parasuis) [ug/mi] | MIC values, Staphylococcus aureus CVCC26003 [4] [ug/mi] | Structure (SMILES) |
| --- | --- | --- | --- | --- | --- |
| ≦0.25 ug/mi | 1 | 16 | 0.25 | 1 | CC[C@H]1OC(=O)[C@H](C)[C@@H](O[C@H]2C[C@@](C)(OC)[C@](O)(CNCc3cccc(N)c3)[C@H](C)O2)[C@H](C)[C@@H](O[C@@H]2O[C@H](C)C[C@H](N(C)C)[C@H]2O)[C@](C)(O)C[C@@H](C)NC[C@H](C)[C@@H](O)[C@]1(C)O [syzx-72, (2R,3S,4R,5S,8R,10R,11R,12S,13S,14R)-13-[(2,6-dideoxy-3-C-methyl-3-O-methyl-4-C-[(3-aminobenzyl-amino)-methyl]-α-L-ribopyranosyl)oxy]-2-ethyl-3,4,10-trihydroxy-3,5,8,10,12,14-hexamethyl-11-[[3,4,6-trideoxy-3-(dimethylamino)-β-D-xylo-hexopyranosy]oxy]-1-oxa-7-azacyclopentadecan-15-one] |
| 0.25 ug/mi | 0.5 | 0.25 | 0.25 | 0.25 | CCCN1C[C@H](C)[C@@H](O)[C@](C)(O)[C@@H](CC)OC(=O)[C@H](C)[C@@H](O[C@H]2C[C@@](C)(OC)[C@](O)(CNCCCN3CCOCC3)[C@H](C)O2)[C@H](C)[C@@H](O[C@@H]2O[C@H](C)C[C@H](N(C)C)[C@H]2O)[C@](C)(O)C[C@H]1C [syzx-169] |
| 0.25 ug/mi | 0.5 | 2 | 0.25 | 0.25 | CCC1OC(=O)C(C)C(OC2CC(C)(OC)C(O)(CNCc3ccc(C)o3)C(C)O2)C(C)C(OC2OC(C)CC(N(C)C)C2O)C(C)(O)CC(C)NCC(C)C(O)C1(C)O [syzx-78, (2R,3S,4R,5S,8R,10R,11R,12S,13S,14R)-13-[(2,6-dideoxy-3-C-methyl-3-O-methyl-4-C-[(5-methylfurfurylamino)-methyl]-α-L-ribopyranosyl)oxy]-2-ethyl-3,4,10-trihydroxy-3,5,8,10,12,14-hexamethyl-11-[[3,4,6-trideoxy-3-(dimethylamino)-β-D-xylo-hexopyranosy]oxy]-1-oxa-7-azacyclopentadecan-15-one] |
| 0.25 ug/mi | 1 | 0.25 | 0.25 | 0.25 | C#CCNC[C@]1(O)[C@H](C)O[C@@H](O[C@H]2[C@H](C)[C@@H](O[C@@H]3O[C@H](C)C[C@H](N(C)C)[C@H]3O)[C@](C)(O)C[C@@H](C)N(CCC)C[C@H](C)[C@@H](O)[C@](C)(O)[C@@H](CC)OC(=O)[C@@H]2C)C[C@@]1(C)OC [syzx-140] |
| 0.25 ug/mi | 0.25 | 0.25 | 0.25 | 0.25 | CCCN1C[C@H](C)[C@@H](O)[C@](C)(O)[C@@H](CC)OC(=O)[C@H](C)[C@@H](O[C@H]2C[C@@](C)(OC)[C@](O)(CN3CCCC3)[C@H](C)O2)[C@H](C)[C@@H](O[C@@H]2O[C@H](C)C[C@H](N(C)C)[C@H]2O)[C@](C)(O)C[C@H]1C [syzx-209] |
| 0.25 ug/mi | 2 | 4 | 2 | 4 | CCCN1C[C@H](C)[C@@H](O)[C@](C)(O)[C@@H](CC)OC(=O)[C@H](C)[C@@H](O[C@H]2C[C@@](C)(OC)[C@](O)(CNCC3CCNCC3)[C@H](C)O2)[C@H](C)[C@@H](O[C@@H]2O[C@H](C)C[C@H](N(C)C)[C@H]2O)[C@](C)(O)C[C@H]1C [syzx-193] |
| 0.5 ug/mi | 16 | 8 | 4 | 8 | CC[C@H]1OC(=O)[C@H](C)[C@@H](O[C@H]2C[C@@](C)(OC)[C@](O)(CNC(C)CCc3ccccc3)[C@H](C)O2)[C@H](C)[C@@H](O[C@@H]2O[C@H](C)C[C@H](N(C)C)[C@H]2O)[C@](C)(O)C[C@@H](C)NC[C@H](C)[C@@H](O)[C@]1(C)O (stereo partly drawn) [syzx-34, (2R,3S,4R,5S,8R,10R,11R,12S,13S,14R)-13-[(2,6-dideoxy-3-C-methyl-3-O-methyl-4-C-[[(1-methyl-3-phenyl)propyl-amino]-methyl]-α-L-ribopyranosyl)oxy]-2-ethyl-3,4,10-trihydroxy-3,5,8,10,12,14-hexamethyl-11-[[3,4,6-trideoxy-3-(dimethylamino)-β-D-xylo-hexopyranosy]oxy]-1-oxa-7-azacyclopentadecan-15-one] |
| 0.25 ug/mi | 1 | 0.25 | 0.25 | 0.25 | CCCN1C[C@H](C)[C@@H](O)[C@](C)(O)[C@@H](CC)OC(=O)[C@H](C)[C@@H](O[C@H]2C[C@@](C)(OC)[C@](O)(CNCc3cnc(C)cn3)[C@H](C)O2)[C@H](C)[C@@H](O[C@@H]2O[C@H](C)C[C@H](N(C)C)[C@H]2O)[C@](C)(O)C[C@H]1C [syzx-165] |
| 0.25 ug/mi | 1 | 0.5 | 0.25 | 0.25 | CCCN1C[C@H](C)[C@@H](O)[C@](C)(O)[C@@H](CC)OC(=O)[C@H](C)[C@@H](O[C@H]2C[C@@](C)(OC)[C@](O)(CNc3ccc(Cl)cc3C)[C@H](C)O2)[C@H](C)[C@@H](O[C@@H]2O[C@H](C)C[C@H](N(C)C)[C@H]2O)[C@](C)(O)C[C@H]1C [syzx-197] |
| 0.5 ug/mi | 4 | 2 | 4 | 4 | CCCN1C[C@H](C)[C@@H](O)[C@](C)(O)[C@@H](CC)OC(=O)[C@H](C)[C@@H](O[C@H]2C[C@@](C)(OC)[C@](O)(CNc3ccc(C)o3)[C@H](C)O2)[C@H](C)[C@@H](O[C@@H]2O[C@H](C)C[C@H](N(C)C)[C@H]2O)[C@](C)(O)C[C@H]1C [syzx-178] |
| 0.25 ug/mi | 1 | 0.25 | 0.25 | 0.25 | CCCN1C[C@H](C)[C@@H](O)[C@](C)(O)[C@@H](CC)OC(=O)[C@H](C)[C@@H](O[C@H]2C[C@@](C)(OC)[C@](O)(CNc3cccc(Cl)c3)[C@H](C)O2)[C@H](C)[C@@H](O[C@@H]2O[C@H](C)C[C@H](N(C)C)[C@H]2O)[C@](C)(O)C[C@H]1C [syzx-113] |
| 0.25 ug/mi | 0.5 | 0.25 | 0.25 | 0.25 | CCCN1C[C@H](C)[C@@H](O)[C@](C)(O)[C@@H](CC)OC(=O)[C@H](C)[C@@H](O[C@H]2C[C@@](C)(OC)[C@](O)(CNCC(C)C)[C@H](C)O2)[C@H](C)[C@@H](O[C@@H]2O[C@H](C)C[C@H](N(C)C)[C@H]2O)[C@](C)(O)C[C@H]1C [syzx-112] |
| 1 ug/mi | 64 | 16 | 8 | 32 | CC[C@H]1OC(=O)[C@H](C)[C@@H](O[C@H]2C[C@@](C)(OC)[C@](O)(CNCC3CCNCC3)[C@H](C)O2)[C@H](C)[C@@H](O[C@@H]2O[C@H](C)C[C@H](N(C)C)[C@H]2O)[C@](C)(O)C[C@@H](C)NC[C@H](C)[C@@H](O)[C@]1(C)O [syzx-93] |
| 0.5 ug/mi | 2 | 16 | 0.5 | 1 | CC[C@H]1OC(=O)[C@H](C)[C@@H](O[C@H]2C[C@@](C)(OC)[C@](O)(CNCCNC)[C@H](C)O2)[C@H](C)[C@@H](O[C@@H]2O[C@H](C)C[C@H](N(C)C)[C@H]2O)[C@](C)(O)C[C@@H](C)NC[C@H](C)[C@@H](O)[C@]1(C)O [syzx-29] |

| Structure (SMILES) | MIC values, Streptococcus equines CVCC556 [1] | MIC values, Pasteurella multocida CVCC399 [2] [ug/mi] | MIC values, Actinobacillus pleuropneumoniae CVCC262 [3] [ug/mi] | MIC values, Haemophilus parasuis (Haemophilus parasuis) [ug/mi] | MIC values, Staphylococcus aureus CVCC26003 [4] [ug/mi] |
| --- | --- | --- | --- | --- | --- |
| CCCN1CC(C)C(O)C(C)(O)C(CC)OC(=O)C(C)C(OC2CC(C)(OC)C(O)(CNCCOS(=O)(=O)O)C(C)O2)C(C)C(OC2OC(C)CC(N(C)C)C2O)C(C)(O)CC1C (stereo not drawn) [syzx-153] | 0.25 ug/mi | 1 | 0.25 | 0.25 | 0.25 |
